# Laboratory results as given in paper PMC11989107, “Biochemical and Structural Characterization of a Highly Glucose-Tolerant β-Glucosidase from the Termite Reticulitermes perilucifugus” (International Journal of Molecular Sciences, 2025).
# Legend:
# RpBgl8 [1] = target: T1, RpBgl8 (Reticulitermes perilucifugus, UniProt A0A7G5VX36, F124W); assay: pNPG hydrolysis with added glucose; format: biochemical; settings: 5 mM pNPG, phosphate buffer pH 7.0, 37 °C, reference of the reduction (no glucose or wild type) not told
# T1 construct: forward primer encodes MSALKF
# T1 sequence (A0A7G5VX36 entry or part of it F124W): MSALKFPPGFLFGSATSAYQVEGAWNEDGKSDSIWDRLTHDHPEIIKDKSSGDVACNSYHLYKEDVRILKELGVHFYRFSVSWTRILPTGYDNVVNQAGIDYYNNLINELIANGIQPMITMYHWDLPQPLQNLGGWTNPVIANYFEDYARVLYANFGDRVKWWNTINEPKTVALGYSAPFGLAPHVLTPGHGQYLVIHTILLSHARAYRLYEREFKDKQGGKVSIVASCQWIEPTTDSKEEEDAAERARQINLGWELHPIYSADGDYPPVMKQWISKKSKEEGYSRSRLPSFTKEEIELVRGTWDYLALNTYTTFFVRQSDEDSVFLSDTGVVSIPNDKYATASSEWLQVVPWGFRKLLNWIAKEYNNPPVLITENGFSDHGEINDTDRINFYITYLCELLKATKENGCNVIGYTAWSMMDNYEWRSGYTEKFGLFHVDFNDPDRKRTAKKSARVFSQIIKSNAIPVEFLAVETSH
# RpBgl8 [2] = target: T2, RpBgl8 (Reticulitermes perilucifugus, UniProt A0A7G5VX36); assay: pNPG hydrolysis with added glucose; format: biochemical
# T2 construct: forward primer encodes MSALKF
# T2 sequence (A0A7G5VX36 entry or part of it): as the sequence (A0A7G5VX36 entry or part of it F124W) above, with W124F counted along it
smiles,measurement,setting,value
OC[C@H]1OC(O)[C@H](O)[C@@H](O)[C@@H]1O (some centres unmarked) [glucose],% reduction of activity at 4.0 M glucose,RpBgl8 [1],54.2%
same,activity at 4 M,RpBgl8 [2],82%
